Assay results published in patent US8389530B2, “Substituted quinazoline compounds” (Fovea Pharmaceuticals, priority 2008, dated 2013).
In brackets after ≈: the same amount, converted by molar mass. Read-outs that look alike come from different tables or passages of the source.

Legend:
[1] = Colour of compounds; format: physicochemical
[2] = Solubility in aqueous buffer at pH 5 (HPLC/UV); format: physicochemical; conditions: acetic acid/KOH buffer pH 5, stirred 24 h at room temperature; for solubility at 24 h: acetic acid/KOH buffer, pH 5, aqueous buffer, thermodynamic from solid
Procedure: Solubility of Compounds was determined in aqueous medium using the following procedure.
Two mg of Compound was added to 200 μl buffer (acetic acid/KOH) solution at pH 5. Solution was then stirred for 24 h at room temperature and then centrifuged 10 min at 16,000 rpm. Corresponding supernatants were analyzed by HPLC and UV detection. Calculation of a given Compound concentration was performed by reporting area under the experimental slope onto a calibration slope obtained separately using DMSO-solubilised Compound at different concentrations.

[3] = test system: Src tyrosine kinase; conditions: in vivo; cited from earlier work
[4] = test system: VEGF-induced blood retinal barrier breakdown; test: Inhibition of vascular leakage in a rabbit model of VEGF-induced blood-retinal barrier breakdown; format: in vivo; conditions: topical 3% (30 mg/ml) 4 times daily for four days, 48 h after intravitreal VEGF, ocular fluorophotometry
Procedure: Intravitreal injection of VEGF in the rabbit eye produces massive retinal vascular leakage (Edelman and Lutz, 2003, Invest. Ophthalmol. Vis. Sci. 2003; 44:ARVO e-abstract No. 328). Based on said animal model, we investigated the efficacy of topical administration of compound 7 of the invention in reducing the retinal leakage in a VEGF-induced blood retinal barrier breakdown in the rabbit. During four days, 3% test compound 7 (30 mg/ml, 10% PEG 400, 87% labrafil) or control items without compound of the Invention were administered 4 times daily by topical administration (50 μl) in the right eye of five rabbits. On day two, animals received a single intravitreal injection of 50 μl (500 ng) recombinant human VEGF 165 (RD systems) into right eye. Forty-seven hours after the VEGF challenge (day four), fluorescein was injected via the marginal ear vein and circulate during one hour. Breakdown of the blood-retinal barrier was evaluated 48 h after VEGF challenge by measuring fluorescein contents into the vitreoretinal compartment using non-invasive scanning ocular fluorophotometry.

[5] = test system: VEGF-induced blood retinal barrier breakdown; test: Inhibition of vascular leakage in a rat model of VEGF-induced blood-retinal barrier breakdown; format: in vivo; conditions: topical 0.51% (5.1 mg/ml) six times over 27 h after intravitreal VEGF, Evans blue
Procedure: We investigated the efficacy of topical administration of compound II of the invention in reducing the retinal leakage in a VEGF-induced blood retinal barrier breakdown in the rat.
Rats were treated by a single intravitreal injection of 5 μl (100 ng) recombinant human VEGF164 (RD Systems) into each eye.
During twenty-seven hours following VEGF injection, 0.51% test compound II of the Invention (5.1 mg/ml buffer pH 5 with 30% cyclodextrin) and control without compound of the Invention were administered six times by topical administration (10 μl) in eyes of sixteen rats.
Twenty-seven hours later after the VEGF challenge, Evans blue dye (45 mg/kg) was injected intravenously and the dye was allowed to circulate during two hours.
Then, each rat was infused with 0.05M citrate buffer pH 3.5 (37° C.) for 2 minutes to allow clearance of the dye. Immediately after said perfusion, both eyes were enucleated and Evans blue dye was extracted by incubating each retina in formamide (Qaum et al Invest. Ophthalmol. Vis. Sci. 2001, Vol 42, No 10). Afterward, the absorbance was measured with a spectrophotometer at 620 nm.
Breakdown of blood-retinal barrier was proportional to the concentration of Evans blue in the retina normalized by Evans blue concentrations in the plasma.

SMILES | Colour [1] | Solubility (pH 5) in % [2] | solubility at 24 h [2] | further results
Cc1cccc(C)c1-c1ccc2nc(Nc3ccc(OCCN4CCCC4)cc3)ncc2c1 [6 Chlorhydrate, [6-(2,6-Dimethyl-phenyl)-quinazolin-2-yl]-[4-(2-pyrrolidin-1-yl-ethoxy)-phenyl]-amine] | Pale yellow | 0.09% | 900 µg/mL | –
Oc1ccc(Cl)c(-c2ccc3nc(Nc4ccc(OCCN5CCCC5)cc4)ncc3c2)c1 [7 base form, 4-Chloro-3-{2-[4-(2-pyrrolidin-1-yl-ethoxy)-phenylamino]-quinazolin-6-yl}-phenol] | Yellow | 0.03% | 340 µg/mL (≈ 738 µM) | –
Cc1cccc(C)c1-c1ccc2nc(Nc3ccc(OCCN4CCC[C@@H]4C(=O)O)cc3)ncc2c1 [8 Chlorhydrate, (R)-1-(2-{4-[6-(2,6-Dimethyl-phenyl)-quinazolin-2-ylamino]-phenoxy}-ethyl)-pyrrolidine-2-carboxylic acid] | Pale yellow | 1% | – | Solubility (pH 5) in mg/ml [2]: 10 mg/ml
Cc1cccc(C)c1-c1ccc2nc(Nc3ccc(N4CCN(CCN5CCCC5)C4=O)cc3)ncc2c1 [9 Chlorhydrate, 1-{4-[6-(2,6-Dimethyl-phenyl)-quinazolin-2-ylamino]-phenyl}-3-(2-pyrrolidin-1-yl-ethyl)-imidazolidin-2-one] | Pale yellow | 0.35% | 3500 µg/mL | –
O=C1N(CCN2CCCC2)CCN1c1ccc(Nc2ncc3cc(-c4cc(O)ccc4Cl)ccc3n2)cc1 [12 Chlorhydrate, 1-{4-[6-(2-Chloro-5-hydroxy-phenyl)-quinazolin-2-ylamino]-phenyl}-3-(2-pyrrolidin-1-yl-ethyl)-imidazolidin-2-one] | Pale yellow | 0.45% | 4500 µg/mL | –
CN(C)[C@@H]1CCN(C(=O)COc2ccc(Nc3ncc4cc(-c5cc(O)ccc5Cl)ccc4n3)cc2)C1 [13 base form] | Pale green | 0.03% | – | Solubility (pH 5) in mg/ml [2]: 0.29 mg/ml
Cc1cc(-c2cc(O)ccc2Cl)cc2cnc(Nc3ccc(OCCN4CCCC4)cc3)nc12.Cl [Compound 18, 1-(2-{4-[6-(2-Chloro-5-hydroxy-phenyl)-8-methyl-quinazolin-2-ylamino]-phenoxy}-ethyl)-pyrrolidinium; chloride] | Pale yellow | 0.67% | 6700 µg/mL | –
Cc1ccc(-c2nn(C(C)(C)C)c3ncnc(N)c23)cc1 [PP1] | – | – | – | breakdown of the brain-blood barrier (BBB) [3]: decrease breakdown of the brain-blood barrier (BBB); expression of VEGF [3]: reduce expression of VEGF; oedema [3]: decrease oedema
Cl.Oc1ccc(Cl)c(-c2ccc3nc(Nc4ccc(OCCN5CCCC5)cc4)ncc3c2)c1 [compound 7, 4-Chloro-3-{2-[4-(2-pyrrolidin-1-yl-ethoxy)-phenylamino]-quinazolin-6-yl}-phenol; hydrochloride] | Pale yellow | 0.19% | 1900 µg/mL | reduction of vascular leakage compared to control [4]: 41%
Cc1cccc(C)c1-c1ccc2nc(Nc3ccc(OCCN4CCC[C@@H]4C(=O)O)cc3)ncc2c1 [compound 8, (R)-1-(2-{4-[6-(2,6-Dimethyl-phenyl)-quinazolin-2-ylamino]-phenoxy}-ethyl)-pyrrolidine-2-carboxylic acid] | – | – | – | Colour ([1]; listed as 8 base form): Orange; Solubility (pH 5) in % ([2]; listed as 8 base form): 0.04%; Solubility (pH 5) in mg/ml ([2]; listed as 8 base form): 0.4 mg/ml
Cc1cccc(C)c1-c1ccc2nc(Nc3ccc(N4CCN(C(=O)c5ccncc5)CC4)cc3)ncc2c1 [compound 11, (4-{4-[6-(2,6-Dimethyl-phenyl)-quinazolin-2-ylamino]-phenyl}-piperazin-1-yl)-pyridin-4-yl-methanone] | – | – | – | reduction of vascular leakage compared to control [5]: 56%
Cc1cccc(C)c1-c1ccc2nc(Nc3ccc(OCC(=O)N4CC[C@@H](N(C)C)C4)cc3)ncc2c1 [compound 14, 1-((R)-3-Dimethylamino-pyrrolidin-1-yl)-2-{4-[6-(2,6-dimethyl-phenyl)-quinazolin-2-ylamino]-phenoxy}-ethanone] | Pale yellow | 0.01% | 140 µg/mL (≈ 282 µM) | –
Oc1ccc(Cl)c(-c2ccc3nc(Nc4ccc(OCCN5CCCCCC5)cc4)ncc3c2)c1 [compound 16, 3-{2-[4-(2-Azepan-1-yl-ethoxy)-phenylamino]-quinazolin-6-yl}-4-chloro-phenol] | Pale yellow | 0.05% | 500 µg/mL (≈ 1020 µM) | –
Cc1cccc(C)c1-c1ccc2nc(Nc3ccc(N4CCNCC4)cc3)ncc2c1 [compound 17, [6-(2,6-Dimethyl-phenyl)-quinazolin-2-yl]-(4-piperazin-1-yl-phenyl)-amine] | brown | 0.63% | 6300 µg/mL (≈ 15400 µM) | –
